Assay [1] deals with T1, T-synthase (UDP-Gal: glycoprotein-N-acetylgalactosamine β-1,3-galactosyltransferase) from Biomphalaria glabrata (Biomphalaria glabrata, UniProt A0A2C9JXL4).
T1 construct: full-length 388 aa type II transmembrane protein, C-terminal His-tag, codon-optimised synthetic gene, expressed in Sf9 cells; lysate or captured on anti-His magnetic beads
T1 sequence (A0A2C9JXL4 1-388): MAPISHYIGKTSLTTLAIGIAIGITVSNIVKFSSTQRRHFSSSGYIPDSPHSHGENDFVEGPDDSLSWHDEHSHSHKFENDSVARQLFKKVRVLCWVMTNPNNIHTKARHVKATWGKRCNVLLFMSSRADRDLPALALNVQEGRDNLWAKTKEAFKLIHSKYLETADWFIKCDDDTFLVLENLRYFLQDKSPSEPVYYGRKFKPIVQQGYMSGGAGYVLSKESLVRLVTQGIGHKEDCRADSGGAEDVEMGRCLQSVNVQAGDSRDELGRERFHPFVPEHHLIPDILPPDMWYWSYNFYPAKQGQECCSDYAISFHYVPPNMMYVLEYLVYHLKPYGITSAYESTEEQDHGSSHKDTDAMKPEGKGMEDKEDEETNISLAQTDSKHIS
Put plainly: galactosyl transfer to pNP-α-GalNAc, HPLC. The note with it: 5 nmol added to 20 μL assay; 200 μM UDP-Gal, 1 mM pNP-α-GalNAc, 20 mM MnCl2, 2 mM ATP, 50 mM MES pH 6.5, 37 °C, 2 h; bead-bound enzyme or lysate not stated for this test. Format: biochemical.

In assay [2] the target is T1, T-synthase (UDP-Gal: glycoprotein-N-acetylgalactosamine β-1,3-galactosyltransferase) from Biomphalaria glabrata. Kind of assay: galactosyl transfer, HPLC; product linkage by NMR. Format: cell-based. The note with it: acceptor, 1 mM; 200 μM UDP-Gal, 20 mM MnCl2, 2 mM ATP, 50 mM MES pH 6.5, 37 °C, 2 h; Sf9 lysate, control lysate inactive.

Take `O=c1ccn([C@@H]2O[C@H](COP(=O)(O)O)[C@@H](O)[C@H]2O)c(=O)[nH]1` [UMP]: the “% inhibition at 5 nmol” value in assay [1] is reported as ~ 50%.

Consider `CC(=O)N[C@H]1[C@@H](Oc2ccc([N+](=O)[O-])cc2)O[C@H](CO)[C@H](O)[C@@H]1O` [pNP-α-GalNAc], for which, in assay [2], the “galactosyl transfer, HPLC; product linkage by NMR” value was “the identity of the product pNP-α-GalNAc-β-1,3-Gal was clearly confirmed”.

In the case of `O=c1ccn([C@@H]2O[C@H](COP(=O)(O)OP(=O)(O)OP(=O)(O)O)[C@@H](O)[C@H]2O)c(=O)[nH]1` [UTP], the “% inhibition at 5 nmol” value in assay [1] was ~ 50%.

For the origin of these results see paper PMC9865085, “Expression and Characterisation of the First Snail-Derived UDP-Gal: Glycoprotein-N-acetylgalactosamine β-1,3-Galactosyltransferase (T-Synthase) from Biomphalaria glabrata” (Molecules, 2023).
